Where two headings read alike, the source gives them in different places.
Assay: Example 7 pharmacokinetics assay for PKPD study (plasma, tumor, liver)
Type: in vivo, BALB/c nude mice
Conditions: mouse, po, 10 mg/kg, p.o., single dose
Method: For the PK and PD study, agents were administered to BALB/c nude mice bearing A375 human melanoma xenografts tumors. Dabrafenib, Compound 141, Compound 118, Compound 156, and Compound 180 were dosed p.o. once on day 1. Known BRAF inhibitor Dabrafenib was used as a positive control. Dabrafenib was dosed at 100 mg/kg. Compound 141, Compound 118, Compound 156, and Compound 180 were dosed at 10 mg/kg.
The plasma samples were collected at predetermined time points for PK analysis. The mice were euthanized at predetermined time points post the treatment. The blood samples were collected into the 1.5 mL Eppendorf tubes containing 15 μL of 0.5 M EDTA-K2. And then the anticoagulant blood samples were centrifuged at 2,500 g at 4° C. for 15 minutes. The plasma samples were separated into 2 aliquots. The 1st was used for PK analysis, and the 2nd served as backup. The samples were stored at −80° C. before bioanalysis.
The tumor samples were collected at predetermined time points for PK and WB analysis. The tumor was dissected out and split into 3 parts. The 1st part was used for PK analysis, the 2nd part was used for WB analysis and the last one served as backup for study. The samples were transferred into pre-labeled tubes and quickly froze in liquid nitrogen within 2 minutes after dissection. The samples were stored at −80° C. before bioanalysis.
Liver samples were collected at predetermined time points for PK analysis. The left lobe of the liver was dissected out and split into 2 parts. The 1st part was used for PK analysis and the 2nd part served as the backup for the study. The samples were transferred into pre-labeled tubes and quickly froze in liquid nitrogen within 2 minutes after dissection. The samples were stored at −80° C. before bioanalysis.
The harvested plasma and liver samples were processed for pharmacokinetics analysis by LC-MS/MS with a concentration range of 0.500-1000 ng/mL for Dabrafenib, Compound 118 and Compound 180 in plasma, 0.100~200 ng/ml for Dabrafenib in Liver and tumor homogenate, 50.0~50,000 ng/mL for Compound 141 in plasma and Liver homogenate, 1.00-1000 ng/ml for Compound 141 in tumor homogenate, 2.00~2000 ng/mL for Compound 118 and Compound 180 in Liver and 0.200~200 ng/ml in tumor homogenate, 1.00~2000 ng/mL for Compound 156 in plasma, 0.500-1000 ng/ml in liver and 0.500-1,000 ng/ml in tumor homogenate.

[1] = liver, read-out: Concentration in Liver (mean ± SEM)
[2] = plasma, read-out: Concentration in Plasma (mean ± SEM)
[3] = tumor, read-out: Concentration in Tumor (mean ± SEM)

concentration at 6 h [1]: 1460 ± 170 ng/g
concentration at 12 h [1]: 262 ± 100 ng/g
concentration at 1 h [2]: 4.13 ± 0.545 µg/mL
concentration at 6 h [2]: 0.805 ± 0.0852 µg/mL
concentration at 12 h [2]: 0.111 ± 0.0463 µg/mL
concentration at 24 h [2]: 0.00178 ± 0.000554 µg/mL
concentration at 1 h [3]: 758 ± 66.9 ng/g
concentration at 6 h [3]: 295 ± 30.3 ng/g
concentration at 12 h [3]: 102 ± 35.6 ng/g
concentration at 24 h [3]: 33.5 ng/g
SMILES: CCN(C)S(=O)(=O)Nc1ccc(F)c(Oc2ccc3ncn(C4CC5(CCN(C6CCN(c7cc8c(cc7F)c(N7CCC(=O)NC7=O)nn8C)CC6)CC5)C4)c(=O)c3c2)c1C#N [Compound 156, 6-[2-cyano-3-[[ethyl(methyl)sulfamoyl]amino]-6-fluoro-phenoxy]-3-[7-[1-[3-(2,4-dioxohexahydropyrimidin-1-yl)-5-fluoro-1-methyl-indazol-6-yl]-4-piperidyl]-7-azaspiro[3.5]nonan-2-yl]-4-oxo-quinazoline]

— US20260297060A1, “COMPOUNDS FOR THE DEGRADATION OF MUTANT BRAF” (C4 THERAPEUTICS, INC., priority 2023, published 2026)
